From patent US20130156791A1, “METHODS AND PHARMACEUTICAL COMPOSITIONS FOR THE TREATMENT OF HIV-1 INFECTIONS” (priority 2010, published 2013)

Legend:
[1] = system: HIV-1 envelope mediated hemifusion/fusion of HeLa Env^+ and HeLa CD4^+ cells; experiment: Hemifusion and cell-cell fusion assays, HeLa Env+ / HeLa CD4+ coculture; assay type: cell-based, human; settings: absence or presence of 70 mM KCl for 3 h; 5 μM AMD3100 (Fig. 4d)
[2] = system: CD4^+CXCR4^+ cells infected with HIVNL43
[3] = system: PHA/IL-2 stimulated human lymphoblasts infected with HIVNDK; experiment: Plasma membrane depolarization after HIVNDK infection (DiBac4(3), flow cytometry); assay type: cell-based; settings: 1 hour of HIVNDK infection (Fig. 4e)
CD4^+CXCR4^+ cells = experiment: Plasma membrane depolarization of uninfected cells (DiBac4(3), flow cytometry); assay type: cell-based, human; settings: 70 mM KCl for 3 h (Fig. 4b,c)
HIVBaL = assay type: cell-based, HIV-1; settings: activated T-lymphoblasts (Fig. 2a, S2a)
HIVNDK = assay type: cell-based, HIV-1; settings: activated T-lymphoblasts (Fig. 2a, S2a)
[4] = system: HIVNDK infected (PHA/IL-2 stimulated) lymphoblasts; assay type: cell-based, human; settings: HIVNDK (Fig. 6d)
[5] = system: CD4/CXCR4-expressing cells cocultured with Env-expressing cells; experiment: HIV-1 envelope mediated conjugate formation (actin polymerization between two interacting cells); settings: coculture of Env-expressing and CD4/CXCR4-expressing cells (Fig. 1d)
Experimental: Error bars indicate SD of 3 independent determinations (means±SD; *P<0.05). (d) Effect of ATP depletion by apyrase on HIV-1 envelope mediated actin polymerization. Actin polymerization between two interacting cells was determined in 3 independent experiments (means±SEM; *P<0.05) by fluorescent microscopy (e) Localization of pannexin-1 at the contact site between primary HIV-1-infected lymphoblasts (green) and primary uninfected lymphoblasts, visualized by confocal microscopy.
HeLa cells stably transfected with the Env gene of HIV-1 LAI/IIIB (HeLa Env) and HeLa cells transfected with CD4 (HeLa CD4) were cultured alone or together at a 1:1 ratio in Dulbecco's modified Eagle's medium supplemented with 10% FCS, 2 mM L-glutamine and penicillin/streptomycin (Invitrogen) in the absence or in presence of tested molecules.

HIVNL43 = experiment: Target cell infectivity, Tat-inducible β-galactosidase reporter; assay type: cell-based, HIV-1; settings: HIVNL43, MOI 1, β-Gal reporter, 24 h after infection
[6] = system: CD4^+CXCR4^+ target cells; assay type: cell-based, human
Experimental: Supplementary FIG. 1 Pannexin-1-dependent ATP release during HIV-1 infection and during HIV-1 Env-mediated fusion. (a) Effect of apyrase and AMD3100 on target cell viability. The viability of cells incubated for 3 hours with different concentrations of apyrase or AMD3100 (as indicated) and then infected with HIV-1NL43 for 2 days, was assessed by the MTT (3-[4,5-dimethylthiazol-2-yl]-2,5-diphenyl tetrazolium bromide) assay, as detailed in Methods. (b) Effects of apyrase and AMD3100 on ATP release detected during HIV-1 infection. […] After 2 hours of infection, ATP release was determined as described in Methods. […] Cell viability in c was assessed as in a (mean±s.e.m; n=3; *P<0.05). Fusion between HIV-1 Env-expressing cells (that also express Tat protein) and CD4^+CXCR4^+ target cells (that contain Tat-inducible β-galactosidase) was determined by measuring β-galactosidase (β-Gal) activity (d), as described in Methods. (e) Effects of Pannexin-1 knockdowns on HIV-1 Env-mediated fusion, as described in (c). Data in (a), (b), (c), (d) and (e) were determined in 3 independent experiments (mean±s.e.m; *P<0.05).

Row | Compound | fusion of Env+ and CD4+/CXCR4+ cells [1] | plasma membrane depolarization induced by HIV-1 infection [3] | replication of R5-tropic HIV (HIVBaL) | replication of X4-tropic HIV (HIVNDK) | CD4+ T cell depletion / death of activated CD4+ T lymphoblasts (7-AAD uptake) [4] | viral infection of lymphoblasts (intracellular p24 antigen) [4] | further results
1 | c1cc(CN2CCCNCCNCCCNCC2)ccc1CN1CCCNCCNCCCNCC1 [AMD3100] | reduced | abolished | – | – | – | – | ATP release during HIV-1 infection [2]: prevented ATP release
2 | [Cl-].[K+] [KCl] | enhanced the fusion | – | – | – | – | – | plasma membrane depolarization (CD4^+CXCR4^+ cells): strongly induced membrane depolarization
3 | Nc1ncnc2c1ncn2[C@@H](C=O)O[C@@H](C=O)COP(=O)(O)OP(=O)(O)OP(=O)(O)O [OxATP, oxidized ATP] | – | – | blocked the replication | blocked the replication | – | – | –
4 | Cc1nc(N=Nc2ccc(S(=O)(=O)O)cc2S(=O)(=O)O)c(COP(=O)(O)O)c(C=O)c1O [PPADS] | – | – | blocked the replication | blocked the replication | reduces | reduces viral infection | –
5 | Cc1ccc(C(=O)Nc2ccc(S(=O)(=O)O)c3cc(S(=O)(=O)O)cc(S(=O)(=O)O)c23)cc1NC(=O)c1cccc(NC(=O)Nc2cccc(C(=O)Nc3cc(C(=O)Nc4ccc(S(=O)(=O)O)c5cc(S(=O)(=O)O)cc(S(=O)(=O)O)c45)ccc3C)c2)c1 [suramin] | – | – | blocked the replication | blocked the replication | reduces | reduces viral infection | –
6 | apyrase | – | abolished | – | – | – | – | conjugate formation revealed by actin polymerization between two interacting cells [5]: abolished conjugate formation; HIV-1 infection (target cell infectivity) (HIVNL43): prevented HIV-1 infection; toxicity / target cell viability [6]: non-toxic
